This passage reports relative viability results from the supplement of paper PMC10307832.

What all share (test): relative viability (nuclei count vs DMSO), 5 days (fraction); higher = more cells survive
Compound in assay [1]: C[C@]12O[C@H](C[C@]1(O)CO)n1c3ccccc3c3c4c(c5c6ccccc6n2c5c31)CNC4=O [Lestaurtinib] + Nc1nc2[nH]cc(CCc3ccc(C(=O)N[C@@H](CCC(=O)O)C(=O)O)cc3)c2c(=O)[nH]1 [Pemetrexed] (partner 0.2 µM)
The procedure, abridged: (§1)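 The day after seeding in 1536-well plates, lung cancer cell lines were treated by pin tool with a single drug, or with a fixed anchor-drug dose together with five library-drug doses (not always all listed) in √10 steps. After 5 days, a combined fix-and-stain solution (final 0.05% Triton X-100, 1% formaldehyde, 1 ug/ml Hoechst) was added. Nuclei counted on 4× images gave relative viability as treated counts over vehicle counts, reported as the median of duplicate plates.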

Compound in the assay “TPCA-1 + Navitoclax”: C1=CC(=CC=C1C2=CC(=C(S2)NC(=O)N)C(=O)N)F [TPCA-1] + CC1(C)CCC(c2ccc(Cl)cc2)=C(CN2CCN(c3ccc(C(=O)NS(=O)(=O)c4ccc(N[C@H](CCN5CCOCC5)CSc5ccccc5)c(S(=O)(=O)C(F)(F)F)c4)cc3)CC2)C1 [Navitoclax] (partner 0.5 µM)
In a few lines: as §1

Compound in assay [2]: C1/C(=C\C2=CC=CS2)/C(=O)/C(=C/C3=CC=CS3)/C1 + N=C(N)NC(=N)NCCc1ccccc1 [Phenformin] (partner 250 µM)
In a few lines: as §1

Compound in the assay “Lestaurtinib + Olaparib”: C[C@]12O[C@H](C[C@]1(O)CO)n1c3ccccc3c3c4c(c5c6ccccc6n2c5c31)CNC4=O [Lestaurtinib] + O=C(c1cc(Cc2n[nH]c(=O)c3ccccc23)ccc1F)N1CCN(C(=O)C2CC2)CC1 [Olaparib] (partner 8 µM)
In a few lines:
as §1

With UMC-11, the relative viability amounted to 0.923 in assay [1] (first compound 0.005 µM); 0.859 in assay [1] (first compound 0.01581 µM); 0.436 in assay [1] (first compound 0.05 µM); 0.256 in assay [1] (first compound 0.1581 µM); 0.176 in assay [1] (first compound 0.5 µM); 0.354 in the assay with TPCA-1 + Navitoclax (first compound 0.04 µM). The relative viability worked out at 0.335 with TPCA-1 + Navitoclax (first compound 0.1265 µM); 0.394 with TPCA-1 + Navitoclax (first compound 0.4 µM); 0.415 with TPCA-1 + Navitoclax (first compound 1.265 µM); 0.253 with TPCA-1 + Navitoclax (first compound 4 µM); 0.32 in assay [2] (first compound 0.2 µM); 0.365 in assay [2] (first compound 0.6325 µM). The relative viability in assay [2] (first compound 20 µM) was found to be 0.324; with Lestaurtinib + Olaparib (first compound 0.005 µM) it was 0.402; in the assay with Lestaurtinib + Olaparib (first compound 0.01581 µM), 0.466; with Lestaurtinib + Olaparib (first compound 0.05 µM) it was 0.384; with Lestaurtinib + Olaparib (first compound 0.1581 µM) it was 0.273; in the assay with Lestaurtinib + Olaparib (first compound 0.5 µM) it was 0.171.
